Reference: patent US8802439B2, “Methods for enhancing infectivity of retroviruses” (priority 2009, dated 2014)
Entries after “also recorded” stand apart in the source; their conditions may differ.

Columns and labels:
[1] = test system: other prolyl isomerases such as CypA or FKBP; conditions: cited from earlier work
Pin1 PPIase = Pin1 PPIase (Homo sapiens, UniProt Q13526); conditions: cited from earlier work
[2] = cited from earlier work
bMLV-GFP = assay: Infectivity of bMLV-GFP virions (RT-normalized), GFP fluorescence via FACS; assay type: cell-based
Experimental: (§1) 293T cells were transfected with HIV-1-GFP, SIV-GFP, bMLV-GFP, and nMLV-GFP proviral constructs, and in each case CMV-VSV-G, in the presence or absence of PiB or excess Pin1 as described above. Released virions were normalized via RT assay (EnzChek® Reverse Transcriptase Assay Kit), and infectivity on naïve TZMb1 cells was analyzed by GFP fluorescence via FACS (% cells infected).
(§2) Infection assays for retrovirus: Single-round infections: CD4^+ TZM-bl 100,000 cells/well/mL were seeded onto 24-well plates 24 hours prior to infection. These cells were infected in quadruplicate to 24-well plates. Infectivity was scored using an enzymatic galactosidase activity assay. Specifically, infected TZM-bl cells were washed and lysed, and 20 μl of lysate was transferred to a 96-well plate for detecting β-galactosidase activity. 100 μl of reaction buffer Galacton-Star substrate (Applied Biosystems, Bedford, Mass.), diluted 1:50, was added to 20 μl of lysate, and the light emission was measured over 1 second in a microplate luminometer after 30 minutes incubation. […] Replication was monitored by p24 ELISA. […] Viruses were used to infect in duplicate wells, incubated for 48 hours, washed with PBS, trypsinized, fixed in 1% formaldehyde and subsequently analyzed by fluorescence-activated cell sorting (FACS) for percentage cells infected.
(§3) We further examined whether blocking Pin1 in producer cells can enhance the infectivity of retroviruses in different primate target cells. […] Infectivity was analyzed by GFP fluorescence via FACS. […] If more cells are infected than the number infected by viruses from untreated cells, this is expressed as a value above 100%—e.g. 2000 cells/10,000 vs 4000 cells/10,000 would be 100% and 200% respectively. […]
In addition to human producer cells, we also examined effect of blocked Pin activity on infectivity of viruses produced in mouse cell lines and nonhuman primate cell lines. […] Infectivity was analyzed by GFP fluorescence via FACS. […]

HIV-1 = HIV-1 viral production in 293T producer cells, p24 ELISA of supernatants; assay type: cell-based
From the text: Plasmids: Laboratory-adapted provirus NL4.3, and the CypA-independent NL4.3 CAi2 were kindly provided by Akio Adachi (Department of Virology, Institute of Health Biosciences, The University of Tokushima Graduate School, JAPAN). Mutant R9G89V was a gift from P. Gallay (TSR1) as were NL4.3-GFP and SIV-GFP (originally Dana Gabuzda, Dana Farber Cancer Institute). NL4.3 A92E was kindly provided by W. Phares (Genetics Unit, Novartis Forschungsinstitut, Vienna, Austria). R9Δgp160 plasmid clone was kindly provided by C. Aiken (Vanderbilt Medical Center). VSV-G (CMV-VSV-G) was kindly provided by D. Trono (École Polytechnique Fédérale de Lausanne). Both bMLV-GFP and nMLV-GFP in the form of pCIG3-N, pCIG3-B as well as pCNCG were kindly provided by J. Stoye (National Institute for Medical Research, UK). Isomerase mutant Pin1 (pFLAG-Pin1R68,69A) and WW-domain mutant Pin1 (pFLAG-Pin1 W34A) were constructed by site-directed mutagenesis. Pseudotyping experiments were performed using DNA constructs encoding the VSV-G generously provided by D. Trono. Human Pin1 was cloned into pFLAG (Sigma-Aldrich) making pFLAG-Pin1. Viruses were produced by transfection of 293T cells using either GeneJuice (Novagen) or calcium phosphate. […] All viruses were harvested 24-48 hours post-transfection and filtered (0.2-μM filter, Steriflip Millipore). […]

HIV-1-GFP = assay: Infectivity of HIV-1-GFP virions (RT-normalized), GFP fluorescence via FACS; assay type: cell-based
Experimental: as §1, §2
We next asked whether Pin1 influences the infectivity of other retroviruses such as SIV, bMLV and nMLV. […] However, unlike previous experiments, virions were normalized via RT assay and infectivity in target cells was analyzed by GFP fluorescence via FACS. […] Note that the observed effect of Pin1 on HIV-1 infectivity using a different means of normalizing viruses (reverse transcriptase activity vs. p24 capsid) and a different means of quantifying infectivity (GFP), agrees with our previous findings above.
We further examined whether blocking Pin1 in producer cells can enhance the infectivity of retroviruses in different primate target cells. […] Infectivity was analyzed by GFP fluorescence via FACS. […]

nMLV-GFP = assay: Infectivity of nMLV-GFP virions (RT-normalized), GFP fluorescence via FACS; assay type: cell-based; conditions: produced with PiB; TZM, OMK, sMAGI, Vero, CV-1 target cells
Experimental: as §2, §3

[3] = produced with PiB, TZM, OMK, sMAGI, Vero, CV-1 target cells

Pin1 PPIase, sequence (Q13526 whole entry): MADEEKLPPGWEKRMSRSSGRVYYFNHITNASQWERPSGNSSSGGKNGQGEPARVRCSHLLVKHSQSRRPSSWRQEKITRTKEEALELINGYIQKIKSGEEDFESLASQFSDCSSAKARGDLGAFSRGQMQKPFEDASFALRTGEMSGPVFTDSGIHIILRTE

## CCOC(=O)CN1C(=O)c2ccc3c4c(ccc(c24)C1=O)C(=O)N(CC(=O)OCC)C3=O [PiB, diethyl-1,3,6,8-tetrahydro-1,3,6,8-tetraoxobenzo[lmn][3,8]phenanthroline-2,7-diacetate]
[1]
  inhibition of other PPIase families (CypA, FKBP): do not inhibit
Pin1 PPIase
  IC50 of Pin1 PPIase activity in vitro: low mM
[2]; 37°
  stability at 37°: instability
[2]; aqueous solution
  stability in aqueous solution: breaks down in aqueous solution
bMLV-GFP; MEF producer cells with PiB, TZM target cells
  infectivity of MLV produced in mouse embryonic fibroblasts: enhanced infectivity
bMLV-GFP; produced in 293T with PiB, TZMb1 cells
  boost of bMLV-GFP infectivity: 2 fold
bMLV-GFP; [3]
  infectivity of bMLV-GFP in primate target cell panel: enhanced infectivity
HIV-1
  viral production (HIV-1 capsid in viral supernatants by p24 ELISA): Neither inhibitor influences viral production; also recorded: do not alter viral production
HIV-1-GFP; produced in 293T with PiB, TZMb1 cells, % cells infected
  boost of HIV-1-GFP infectivity: 3 fold
HIV-1-GFP; [3]
  infectivity of HIV-1-GFP in primate target cell panel: enhanced infectivity
HIV-1-GFP; relative to control HIV-1 infectivity seen in sMAGI cells (no infection of OMK with control HIV-1)
  boost of HIV-GFP infectivity in OMK cells: 400%
nMLV-GFP
  infectivity of nMLV-GFP in primate target cell panel: enhanced infectivity
